The numbers were not newly measured in patent US6537592B2, “Extracts of kava-kava” (Kava Pharmaceuticals, Inc., priority 2000, dated 2003), which cites them from elsewhere.

Each structure is given as a SMILES string.

The conditions of the series: at 21° C., water.

`COC1=CC(=O)O[C@@H](/C=C/c2ccccc2)C1` [kawain]: the maximum solubility entry is given as “about 2.2 mg/100 ml water”.
